According to patent US20030113797A1, “Method for generating, screening and dereplicating natural product libraries for the discovery of therapeutic agents” (UNIGEN PHARMACEUTICALS, INC., priority 2001, published 2003):

Tests used:
[1] = tested on: COX-1 and COX-2 recombinant enzymes; details: major compound of fraction D3, Camellia sinensis aqueous extract; cited from earlier work
[2] = tested on: B16 F1 mouse melanoma cells; assay: Inhibition of melanogenesis (alpha-MSH stimulated melanin formation); format: cell-based; details: identified by dereplication of fractions D2 to D7
Procedure: Inhibition of melanogenesis was determined by a modified method of Siegrist and Eberle (x). B16 F1 mouse melanoma cells (2.0×10^4 cells/mL) were subcultured in GibcoBRL Modified Eagle Medium (10% FBS, 1% Gibco non-essential amino acids, 1% PSG, 1.5% Gibco vitamin solution). After 3 days incubation (37° C., 5% CO2) cells were seeded (2500 cells/well, 200 μL) in 96 well sterile culture plates (Costar) and incubated overnight (37° C., 5% CO2). The next day, cell culture medium was replaced with 100 μL fresh medium. Extract samples were dissolved in DMSO at a concentration of 30 mg/mL and diluted 1:1000 in cell culture medium on separate, sterile, 96 well plates. […] Sample wells containing no α-MSH were used to determine sample absorbance at 450 nm unrelated to melanin pigment formation as control. […] The degree of melanin formation was determined at 450 nm in a 96 well plate reader. Percent inhibition of samples was determined by the formula: […]
Ac MSH+: Absorbance at 450 nm of cells containing no sample, with MSH
Ac MSH−: Absorbance at 450 nm of cells containing no sample, without MSH
As MSH+: Absorbance at 450 nm of cells containing sample, with MSH
As MSH−: Absorbance at 450 nm of cells containing sample, without MSH

SMILES: O=C(O[C@@H]1Cc2c(O)cc(O)cc2O[C@@H]1c1cc(O)c(O)c(O)c1)c1cc(O)c(O)c(O)c1 [Epigallocatechin Gallate (EGCG), Epigallocatechin Gallate]
- COX inhibitor (known activity) [1]: well known COX inhibitor

SMILES: O=C(OC1C(CO)OC(O)C2OC(=O)c3cc(O)c(O)c(O)c3-c3c(cc(O)c(O)c3O)C(=O)OC21)c1cc(O)c(O)c(O)c1 (centres unmarked) [Pterocaryanin B]
- Inhibition of melanin synthesis [2]: inhibition of melanin synthesis
